Measurements published in patent US20200341000A1, “METHOD OF SCREENING COMPOUNDS FOR TREATING CNS DISORDERS” (SAGE THERAPEUTICS, INC., priority 2017, published 2020).
Entries after “also recorded” stand apart in the source; their conditions may differ.

Assays:
[1] = system: GABA-evoked currents in GT1-7 cells; test: Patch-clamp of GABA-induced currents in GT1-7 cells, compound in the pipette electrolyte; assay type: cell-based; conditions: 100 nM in electrolyte, GABA EC20, 20 min time course
Experimental: Patch-clamp recordings were made from GT1-7 cells. The magnitude of the GABA-induced currents (IGABA) at EC20 agonists concentration were then measured, in the presence of control electrolyte or that supplemented with 100 nM ALLO, or 100 nM ORG OD 02-0 over a time course of 20 min.

[2] = system: tonic current in dentate gyms granule cells (DGGCs); test: Sustained (metabotropic) enhancement of tonic current in DGGCs after 15 min exposure and washout; assay type: cell-based, mice; conditions: protocol as in FIG. 3; n=6-8 cells
Experimental: Brain slices were prepared from 3- to 5-week-old male C57 mice. Mice were anesthetized with isoflurane, decapitated, and brains were rapidly removed and submerged in ice-cold cutting solution containing (mM): 126 NaCl, 2.5 KCl, 0.5 CaCl2, 2 MgCl2, 26 NaHCO3, 1.25 NaH2PO4, 10 glucose, 1.5 sodium pyruvate, and 3 kynurenic acid. Coronal 310 μm thick slices were cut with the vibratome VT1000S (Leica Microsystems, St Louis, Mo., USA). The slices were then transferred into incubation chamber filled with prewarmed (31-32° C.) oxygenated artificial cerebro-spinal fluid (ACSF) of the following composition (in mM): 126 NaCl, 2.5 KCl, 2 CaCl2, 2 MgCl2, 26 NaHCO3, 1.25 NaH2PO4, 10 glucose, 1.5 sodium pyruvate, 1 glutamine, 3 kynurenic acid and 0.005 GABA bubbled with 95% O2-5% CO2. Slices were allowed to recover at 32° C. for at least 1 hr before recording. Exogenous GABA was added in an attempt to standardize ambient GABA in the slice and provide an agonist source for newly inserted extrasynaptic GABAARs.
After recovery, a single slice was transferred to a submerged, dual perfusion recording chamber (Warner Instruments, Hamden, Conn., USA) on the stage of an upright microscope (Nikon FN-1) with a 40× water immersion objective equipped with DIC/IR optics. Slices were maintained at 32° C. and gravity-superfused with ACSF solution throughout experimentation and perfused at rate of 2 ml/min with oxygenated (O2/CO2 95/5%) ACSF.
Whole-cell currents were recorded from the dentate gyms granule cells (DGGCs) in 310-μm-thick coronal hippocampal slices. Patch pipettes (5-7MΩ) were pulled from borosilicate glass (World Precision Instruments) and filled with intracellular solution of the composition (in mM) as follows: 140 CsCl, 1 MgCl2, 0.1 EGTA, 10 HEPES, 2 Mg-ATP, 4 NaCl and 0.3 Na-GTP (pH=7.2 with CsOH). A 5 min period for stabilization after obtaining the whole-cell recording conformation (holding potential of −60 mV) was allowed before currents were recorded using an Axopatch 200B amplifier (Molecular Devices), low-pass filtered at 2 kHz, digitized at 20 kHz (Digidata 1440A; Molecular Devices), and stored for offline analysis.
For tonic current measurements, an all-points histogram was plotted for a 10 s period before and during 100 μM picrotoxin application, once the response reached a plateau level. Recordings with unstable baselines were discarded. Fitting the histogram with a Gaussian distribution gave the mean baseline current amplitude and the difference between the amplitudes before and during picrotoxin was considered to be the tonic current. The negative section of the all-points histogram which corresponds to the inward IPSCs was not fitted with a Gaussian distribution (Kretschmannova et al., 2013; Nusser and Mody, 2002). Series resistance and whole-cell capacitance were continually monitored and compensated throughout the course of the experiment. Recordings were eliminated from data analysis if series resistance increased by >20%. Spontaneous inhibitory post-synaptic currents (sIPSCs) were analyzed using the mini-analysis software (version 5.6.4; Synaptosoft, Decatur, Ga.). Minimum threshold detection was set to 3 times the value of baseline noise signal. To assess sIPSC kinetics, the recording trace was visually inspected and only events with a stable baseline, sharp rising phase, and single peak were used to negate artifacts due to event summation. Only recordings with a minimum of 200 events fitting these criteria were analyzed. sIPSCs amplitude, and frequency from each experimental condition was pooled and expressed as mean±SEM. To measure sIPSC decay, 100 consecutive events were averaged and the decay was fitted to a double exponential and the weighted decay constant (tw) was determined. Statistical analysis was performed by using Student t-test (paired and unpaired where appropriate), where p<0.05 is considered significant.

[3] = biological target: T1, GABAARs composed of α4β3 subunits (Homo sapiens, UniProt P28472+P48169); test: Acute modulation of GABA-induced currents in HEK-293 cells; assay type: cell-based; set-up: dose or concentration left out as unconfirmed; conditions: rapidly applied with GABA
T1 construct: expressed in transfected cells; host or cells: HEK-293
T1 sequence (P48169 36-554): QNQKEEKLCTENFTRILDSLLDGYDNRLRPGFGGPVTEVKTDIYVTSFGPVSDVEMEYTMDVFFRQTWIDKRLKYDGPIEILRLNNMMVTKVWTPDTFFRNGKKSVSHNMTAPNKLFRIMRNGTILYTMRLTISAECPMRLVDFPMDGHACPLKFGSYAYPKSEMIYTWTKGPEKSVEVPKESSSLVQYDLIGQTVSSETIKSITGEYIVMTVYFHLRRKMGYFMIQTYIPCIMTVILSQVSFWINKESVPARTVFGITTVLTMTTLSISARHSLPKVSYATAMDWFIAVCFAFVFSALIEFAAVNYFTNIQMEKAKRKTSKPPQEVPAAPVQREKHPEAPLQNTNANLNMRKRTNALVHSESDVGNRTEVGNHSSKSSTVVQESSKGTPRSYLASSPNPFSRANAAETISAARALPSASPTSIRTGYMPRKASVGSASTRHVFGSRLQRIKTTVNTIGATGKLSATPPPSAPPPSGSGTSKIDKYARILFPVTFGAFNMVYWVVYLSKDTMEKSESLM
T1 sequence (P28472 26-473): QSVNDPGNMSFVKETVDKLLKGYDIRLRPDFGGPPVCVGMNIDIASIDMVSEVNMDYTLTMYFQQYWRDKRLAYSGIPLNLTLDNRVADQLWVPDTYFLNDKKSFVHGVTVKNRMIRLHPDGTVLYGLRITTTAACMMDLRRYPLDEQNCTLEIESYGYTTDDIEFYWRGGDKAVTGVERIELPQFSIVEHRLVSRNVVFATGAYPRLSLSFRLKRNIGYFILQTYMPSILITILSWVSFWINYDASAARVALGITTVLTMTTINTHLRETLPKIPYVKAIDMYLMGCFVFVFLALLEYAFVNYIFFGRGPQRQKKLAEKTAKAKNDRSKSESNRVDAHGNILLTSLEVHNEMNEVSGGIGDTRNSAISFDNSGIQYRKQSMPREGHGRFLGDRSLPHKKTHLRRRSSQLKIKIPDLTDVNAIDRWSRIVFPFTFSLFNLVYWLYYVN

[4] = system: GABAA receptor β3 subunit S408/9 phosphorylation; test: Immunoblot of β3 S408/9 phosphorylation in hippocampal slices; assay type: cell-based, mice; conditions: 100 nM
Experimental: Hippocampi were dissected out of acute slices from 8 to 12 week old C57/B16 mice and lysed with phosphate buffer including: 20 mM Tris-HCl, 150 mM NaCl, 5 mM EDTA, 10 mM NaF, 2 mM Na3VO4, 10 mM pyrophosphate, 0.1% SDS and 1% Triton after drug treatment. The β3 subunit was isolated using immunoprecipitation with β3 antibodies, after correction for protein content and the specific activity of labeling. Results were attained by SDS/PAGE followed by autoradiography (Abramian et al., 2010). For biotinylation experiments hippocampi were dissected out of acute slices from 8 to 12 week old C57/B16 mice and incubated in artificial cerebrospinal fluid (ACSF) described above at 30° C. for 1 h for recovery before experimentation. Slices were then placed on ice and incubated for 30 min with 1 mg/mL NHS-SS-biotin (Pierce). Excess biotin was removed by a 50 mM glycine quenching buffer, followed by washing of slices three times in ice-cold ACSF. The tissue was snap frozen on dry ice for 5 min, thawed at 4° C. and lysed. The lysates were solubilized with 2% Triton at 4° C. on a rotating wheel for 1 h. The insoluble material was removed by centrifugation, and 350-500 μg of protein lysate were incubated with NeutrAvidin beads (Pierce) for 18-24 h at 4° C. Bound material was eluted with sample buffer and subjected to SDS/PAGE and then immunoblotted with the indicated antibodies. Blots were then quantified using the CCD-based ChemiDoc XRS ? system. Antibodies against the β3 subunit and the phospho-β3 antibody were generated and verified by the laboratory of S.J.M. (Vien et al., 2015).
To produce antibodies specific for phosphorylated S443, rabbits were injected with a synthetic peptide corresponding to residues […] of the murine α4 subunit in which the serine residue corresponding to S443 was chemically phosphorylated; […]. Hippocampal slices were treated with vehicle (Con), or SGE-516 for 20 min. Slices were immunoblotted with pS408/9, β3, or actin antibodies. The ratio of pS408/9/β3 immunoreactivity was then normalized to control slices (100%=the line).
Hippocampal slices were treated with 100 nM ALLO or P4 (progesterone), and S408/9 phosphorylation was then determined as detailed above, n=4 slices (FIG. 18D). Hippocampal slices were treated with 100 nM ORG (FIG. 18E). S408/9 phosphorylation was examined using immunoblotting.

## C=C[C@]12CCC(=O)C=C1CC[C@H]1[C@@H]3CC[C@H](C(C)=O)[C@@]3(C)CC[C@@H]12 [ORG OD 02-0]
[1]
  GABA-evoked currents (IGABA) over time: sustained increases
[2]
  amplitude and density of GABAergic tonic current at varying doses: dosage-dependent effect; also recorded: dosage dependent effect
[3]
  acute modulation of GABA-evoked current (IGABA): did not acutely modulate; also recorded: does not acutely modulate
[4]
  S408/9 phosphorylation in hippocampal slices: regulated
